Values after ≈ are worked out from the molar mass of the structure shown.
What was measured:
Brain = test: Drug uptake in C57BL/6 mouse brain at 30 mg/kg, po; assay type: ADME, organism-based; conditions: in vivo
[1] = Oral bioavailability in rat at 10 mg/kg; assay type: ADME, organism-based; conditions: in vivo
[2] = Drug uptake in CSF of C57BL/6 mouse at 30 mg/kg, po; assay type: ADME, organism-based, Cerebrospinal fluid; conditions: in vivo
Plasma [3] = test: Plasma concentration in C57BL/6 mouse at 3 to 30 mg/kg, po; assay type: ADME, organism-based; conditions: in vivo
[4] = Lipophilicity, log D of compound by HPLC analysis; assay type: physicochemical
[5] = Tmax in po dosed C57BL/6 mouse; assay type: ADME, organism-based; conditions: in vivo
[6] = Kinetic solubility of the compound at pH 7 by HPLC analysis; assay type: physicochemical; conditions: buffer, read-out: Kinetic_solubility
[7] = Kinetic solubility of the compound at pH 2 by HPLC analysis; assay type: physicochemical; conditions: buffer, read-out: Kinetic_solubility
Rattus norvegicus = test: Intrinsic clearance in rat at 0.05 mg/kg, iv administered in cassette format or 2 mg/kg, iv administered as single dose or 10 mg/kg, po; assay type: ADME, organism-based; conditions: in vivo
Plasma [8] = test: Plasma concentration in C57BL/6 mouse at 1 to 10 mg/kg, po; assay type: ADME, organism-based; conditions: in vivo

Row | Compound | bioavailability [1] [%] | logD [4] | CL (Rattus norvegicus) [mL/min/kg] | further results
1 | CC1(C)CN2CCC[C@]2(CNc2cc(F)c(S(=O)(=O)Nc3nccs3)cc2Cl)C1 | 61 | 1.7 | 460 | concentration (Plasma [8]): 250 nM; Tmax [5]: 3 h; solubility kinetic [6]: 28 µM (≈ 12.9 µg/mL); solubility kinetic [7]: 143 µM (≈ 65.6 µg/mL)
2 | O=S(=O)(Nc1nccs1)c1cc(Cl)c(NCC23CCCCN2CCCC3)cc1F |  | 2.2 | 3000 | 
3 | O=S(=O)(Nc1ccncn1)c1cc(Cl)c(NCC23CCCN2CCC3)cc1F |  | -0.2 | 61 | 
4 | O=S(=O)(Nc1nccs1)c1cc(Cl)c(NC[C@]23CCCN2C[C@@H](F)C3)cc1F | 57 | 1.5 | 810 | 
5 | O=S(=O)(Nc1cscn1)c1cc(Cl)c(NCC23CCCN2CCC3)cc1F |  | 0.7 |  | 
6 | O=S(=O)(Nc1ncns1)c1cc(F)c(NCC23CCCN2CCC3)cc1F | 4 | 0 | 62 | 
7 | O=S(=O)(Nc1nccs1)c1cc(Cl)c(NCC23CCCN2CC(F)(F)C3)cc1F (configuration not stated) |  | 1.7 |  | 
8 | CC1(C)CN2CCC[C@@]2(CNc2cc(F)c(S(=O)(=O)Nc3nccs3)cc2Cl)C1 | 45 | 1.7 | 850 | 
9 | O=S(=O)(Nc1nccs1)c1cc(Cl)c(NCCC23CCCN2CCC3)cc1F | 30 | 0.6 | 1600 | 
10 | O=S(=O)(Nc1nccs1)c1cc(Cl)c(NC[C@@]23CCCN2C[C@H](F)C3)cc1F |  | 1.5 |  | 
11 | O=S(=O)(Nc1cccc(F)n1)c1cc(Cl)c(NCC23CCCN2CCC3)cc1F | 26 | 1 | 610 | 

Further lines, with some results ahead:

Row | bioavailability [1] [%] | logD [4] | CL (Rattus norvegicus) [mL/min/kg] | Compound | further results
12 | 40 | 0.7 |  | O=S(=O)(Nc1nccs1)c1cc(Cl)c(NCC23CCCN2CCC3)cc1F | Drug uptake (Brain): 6%; Drug uptake [2]: 1%; concentration (Plasma [3]): 420 nM; Tmax [5]: 3 h; solubility kinetic [6]: 43 µM (≈ 18.5 µg/mL); solubility kinetic [7]: 159 µM (≈ 68.5 µg/mL)
13 |  | 1.3 | 630 | Cc1nc(NS(=O)(=O)c2cc(Cl)c(NCC34CCCN3CCC4)cc2F)sc1F | 
14 |  | 0.4 | 660 | O=S(=O)(Nc1ncns1)c1cc(Cl)c(NCC23CCCN2CCC3)cc1F | 
15 |  | 1.1 | 560 | Cc1cnc(NS(=O)(=O)c2cc(Cl)c(NCC34CCCN3CCC4)cc2F)s1 | 
16 | 55 | 1 | 230 | O=S(=O)(Nc1ncc(F)s1)c1cc(Cl)c(NCC23CCCN2CCC3)cc1F | 
17 | 36 | 1.1 | 71 | Cc1csc(NS(=O)(=O)c2cc(Cl)c(NCC34CCCN3CCC4)cc2F)n1 | 
18 | 45 | 1.3 | 780 | O=S(=O)(Nc1ncc(Cl)s1)c1cc(Cl)c(NCC23CCCN2CCC3)cc1F | 

Source: ChEMBL document CHEMBL4017458, “Discovery of selective, orally bioavailable, N-linked arylsulfonamide Nav1.7 inhibitors with pain efficacy in mice” (Bioorg Med Chem Lett, 2017)
